Results: patent US20060269605A1, “Multilayer pharmaceutical dosage form containing a substance that acts in a modulatory manner with regard to the release of active substances” (Roehm Gmbh & Co. KG, priority 2003, published 2006)

Experiment: active ingredient delivery in PhEur phosphate buffer of pH 6.8 in a USP dissolution tester
Format: physicochemical
Conditions: modulator as core of theophylline pellets coated with EUDRAGIT RS, no inner controlling layer, versus microcrystalline cellulose core (Example 5)

| effect of the substance having a modulating effect on active ingredient delivery | SMILES |
| --- | --- |
| accelerating effect | CC(=O)[O-].[Na+] [sodium acetate] |
| accelerating effect | O=C(O)CC(O)(CC(=O)O)C(=O)O [citric acid] |
| accelerating effect | O=C([O-])CCC(=O)[O-].[Na+].[Na+] [sodium succinate] |

| SMILES | effect of the substance having a modulating effect on active ingredient delivery |
| --- | --- |
| [Cl-].[Na+] [sodium chloride] | reducing effect |
